The values below come from patent US11384063B2, “Modulators of estrogen receptor proteolysis and associated methods of use” (Arvinas Operations, Inc., priority 2017, dated 2022).

Assay [1] has as its target T1, ERα (Homo sapiens, UniProt P03372).
T1 sequence (P03372 1-595): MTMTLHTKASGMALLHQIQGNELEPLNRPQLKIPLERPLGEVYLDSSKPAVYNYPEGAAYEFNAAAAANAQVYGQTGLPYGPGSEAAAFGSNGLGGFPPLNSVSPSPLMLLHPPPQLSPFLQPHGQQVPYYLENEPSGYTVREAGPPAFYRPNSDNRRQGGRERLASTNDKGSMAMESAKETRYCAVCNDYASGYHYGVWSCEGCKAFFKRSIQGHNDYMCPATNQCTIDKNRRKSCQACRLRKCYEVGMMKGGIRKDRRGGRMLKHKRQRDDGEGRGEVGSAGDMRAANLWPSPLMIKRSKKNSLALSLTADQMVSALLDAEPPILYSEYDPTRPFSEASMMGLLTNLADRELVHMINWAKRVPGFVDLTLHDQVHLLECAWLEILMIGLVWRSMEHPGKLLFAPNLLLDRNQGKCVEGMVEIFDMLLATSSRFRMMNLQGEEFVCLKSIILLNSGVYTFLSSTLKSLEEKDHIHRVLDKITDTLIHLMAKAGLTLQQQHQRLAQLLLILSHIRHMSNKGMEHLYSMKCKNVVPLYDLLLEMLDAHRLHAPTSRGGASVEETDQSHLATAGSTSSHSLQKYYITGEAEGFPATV
The assay is described as follows: Estrogen receptor-alpha (ERα) degradation assay in MCF7 cells using In-Cell Western assay. In kind it is cell-based. Also on record: assessed for their activity in degrading ERα in MCF-7 cells via western blot; endogenous in cells; host or cells: MCF7 cells. As to conditions: ER-alpha degradation in MCF7 cells, 5 days of incubation. The procedure:
Estrogen Receptor-Alpha (ERα) Degradation Assay Using in-Cell Western™ Assay for Table 5.
Degradation of ERα by claimed compounds were determined in MCF7 cells using an In-Cell Western™ assay. Briefly, MCF7 cells were plated in 96-well plates (2000 cells per well in 100 μl media) and incubated at 37° C. under an atmosphere of 5% CO2 in a humidified incubator overnight. One-hundred (100) μI of media containing test compound (at 2x concentration) was added to the appropriate wells to provide 11 serially decreasing concentrations (top final concentration, 1 μM then 3-fold less for the next 10 concentrations); a vehicle control (DMSO) was also added for each compound. For each experiment, all compounds were assayed on duplicate plates. Cells were then incubated for 3 or 5 days in the above-mentioned environment. The assay was terminated by removal of media, a single wash with ice-cold PBS and the addition of 50 μl paraformaldehyde (PFA: 4% in PBS). After 15 minutes in PFA at room temperature, the cells were permeabilized in Tris-phosphate-buffered saline with Tween (0.1%) (TBST) supplemented with Triton X-100 (0.5%) for 15 minutes. Cells were then blocked in BSA (TBST with BSA, 3%) for one hour. Primary antibodies for the detection of ERa (rabbit monoclonal, 1:1000, Cell Signaling Technology Catalog #8644) and tubulin (mouse monoclonal, 1:5000, Sigma Catalog #T6074) in TBST with BSA (3%) were added. The cells were incubated overnight at 4° C. The cells were then washed thrice with TBST at room temperature and then incubated with anti-rabbit and anti-mouse fluorescently-labelled secondary antibodies (IRDye®; LI-COR; Lincoln, Nebr.) in LI-COR blocking buffer (Catalog #927-50000) for one hour at room temperature. Following 3 washes with TBST, the buffer was removed and the plates were read on an Odyssey® infrared imaging system (LI-COR®, Lincoln, Nebr.) at 700 nm and 800 nm. Using commercial software (ImageStudio™; LI-COR, Lincoln, Nebr.), the staining intensity for ERa and tubulin in each well was quantified and exported for analysis. For each data point, ERa intensity was normalized to tubulin intensity and for each compound all normalized intensity values were normalized to the vehicle control. DC50 and Dmax values were determined following a 4-parameter IC50 curve fit using ACAS dose response module (McNeil & Co Inc.).

The target of assay [2] is T1, ERα. Nature of the assay: ERE luciferase reporter gene assay in T47D-KBluc cells (target engagement). In kind it is cell-based. The arrangement: T47D human breast cancer cells stably transfected with estrogen responsive element/promoter/luciferase reporter gene; host or cells: T47D-KBluc cells. Particulars: 10% FBS, 24 hours, Table 3 cereblon centric PROTACs, read-out: ER-α Luciferase IC50. The method in brief:
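T47D-KBluc breast cancer cells, which carry a stable ERE-luciferase reporter, were grown in RPMI with 10% FBS (about 10 pM estrogen) and exposed to PROTACs for 24 h. The 12-point, 3-fold series ran from 300 nM to 2 pM. Luciferase was read after lysis, and IC50 was fitted from duplicates.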
(In a reporter assay the amount or activity of a reporter protein is the signal.)

As for `O=C1CCC(N2Cc3cc(N4CCN(C5CCN(CCOc6ccc(Oc7c(-c8ccc(C(F)(F)F)cc8)sc8cc(O)ccc78)cc6)CC5)CC4)ccc3C2=O)C(=O)N1` (centres unmarked) [Compound 192, 3-[5-[4-[1-[2-[4-[6-hydroxy-2-[4-(trifluoromethyl)phenyl]benzothiophen-3-yl]oxyphenoxy]ethyl]-4-piperidyl]piperazin-1-yl]-1-oxo-isoindolin-2-yl]piperidine-2,6-dione], at ERα [1], the DC50 – broadly, the concentration at which degradation of the target reaches its halfway point – lay in the range of 10 to 100 nM and the Dmax (as a rule, the greatest extent of degradation seen) was more than 75%. Also, at ERα [2], the IC50 – broadly, the concentration that inhibits the measured activity by half – was found to be 2.9 nM.

In the case of `O=C1CCC(N2Cc3c(ccc(N4CCN(C5CCN(CCOc6ccc(Oc7c(-c8ccc(C(F)(F)F)cc8)sc8cc(O)ccc78)cc6)CC5)CC4)c3F)C2=O)C(=O)N1` (centres unmarked) [Compound 193, 3-[4-fluoro-5-[4-[1-[2-[4-[6-hydroxy-2-[4-(trifluoromethyl)phenyl]benzothiophen-3-yl]oxyphenoxy]ethyl]-4-piperidyl]piperazin-1-yl]-1-oxo-isoindolin-2-yl]piperidine-2,6-dione], at ERα [1], the DC50 is 1 to 10 nM and the Dmax was more than 75%. Besides, the IC50 on ERα [2] turned out to be 9.8 nM.

At ERα [1], `O=C1CCC(N2Cc3cc(N4CCN(C5CCN(CCOc6ccc(Oc7c(-c8ccc(Br)cc8)sc8cc(O)ccc78)cc6)CC5)CC4)ccc3C2=O)C(=O)N1` (centres unmarked) [Compound 194, 3-[5-[4-[1-[2-[4-[2-(4-bromophenyl)-6-hydroxybenzothiophen-3-yl]oxyphenoxy]ethyl]-4-piperidyl]piperazin-1-yl]-1-oxo-isoindolin-2-yl]piperidine-2,6-dione] gave a DC50 of 1 to 10 nM and a Dmax of more than 75%. Moreover, on ERα [2], the IC50 amounted to 3.9 nM.

Turning to `O=C1CCC(N2Cc3cc(CCCCN4CCCN(CCOc5ccc(Oc6c(-c7ccc(Br)cc7)sc7cc(O)ccc67)cc5)CC4)ccc3C2=O)C(=O)N1` (centres unmarked) [Compound 199, 3-[5-[4-[4-[2-[4-[2-(4-bromophenyl)-6-hydroxybenzothiophen-3-yl]oxyphenoxy]ethyl]-1,4-diazepan-1-yl]butyl]-1-oxo-isoindolin-2-yl]piperidine-2,6-dione], on ERα [1], the half-maximal degradation concentration (DC50) is 1 to 10 nM and the maximal degradation (Dmax) lay in the range of 50 to 75%. On ERα [2], the IC50 was 0.82 nM.

On ERα [1], `O=C1CCC(N2Cc3c(ccc(N4CCN(CC5CCN(CCOc6ccc(Oc7c(-c8ccc(C(F)(F)F)cc8)sc8cc(O)ccc78)cc6)CC5)CC4)c3F)C2=O)C(=O)N1` (centres unmarked) [Compound 201, 3-[4-fluoro-5-[4-[[1-[2-[4-[6-hydroxy-2-[4-(trifluoromethyl)phenyl]benzothiophen-3-yl]oxyphenoxy]ethyl]-4-piperidyl]methyl]piperazin-1-yl]-1-oxo-isoindolin-2-yl]piperidine-2,6-dione] returned a DC50 of 10 to 100 nM and a Dmax of more than 75%. For the same compound, at ERα [2], the concentration for half-maximal inhibition (IC50) is 8.4 nM.

On ERα [1], `O=C1CCC(N2Cc3c(cc(F)c(N4CCN(C5CCN(CCOc6ccc(Oc7c(-c8ccc(Br)cc8)sc8cc(O)ccc78)cc6)CC5)CC4)c3F)C2=O)C(=O)N1` (centres unmarked) [Compound 205, 3-[5-[4-[1-[2-[4-[2-(4-bromophenyl)-6-hydroxybenzothiophen-3-yl]oxyphenoxy]ethyl]-4-piperidyl]piperazin-1-yl]-4,6-difluoro-1-oxo-isoindolin-2-yl]piperidine-2,6-dione] registered a DC50 of 10 to 100 nM and a Dmax of more than 75%. Further, the IC50 on ERα [2] stood at 3.5 nM.

Compound `O=C1CCC(N2C(=O)c3ccc(N4CC(N5CCC(Oc6ccc(Oc7c(-c8ccc(Br)cc8)sc8cc(O)ccc78)cc6)CC5)C4)cc3C2=O)C(=O)N1` (centres unmarked) [Compound 213, 5-[3-[4-[4-[2-(4-bromophenyl)-6-hydroxybenzothiophen-3-yl]oxyphenoxy]-1-pipendyl]azetidin-1-yl]2-(2,6-dioxo-3-piperidyl)isoindoline-1,3-dione] returned a Dmax on ERα [1] of less than 50%. Besides, the IC50 at ERα [2] is 11.2 nM.

In the case of `O=C1CCC(N2C(=O)c3ccc(N4CCC(CN5CC(c6ccc(Oc7c(-c8ccc(Br)cc8)sc8cc(O)ccc78)cc6)C5)CC4)cc3C2=O)C(=O)N1` (centres unmarked) [Compound 214], on ERα [1], the DC50 is 1 to 10 nM and the maximal degradation (Dmax) was 50 to 75%. On ERα [2], the IC50 stood at 10.4 nM.

Turning to `O=C1CCC(N2Cc3cc(N4CCN(CCCCc5ccc(Oc6c(-c7ccc(Br)cc7)sc7cc(O)ccc67)cc5)CC4)ccc3C2=O)C(=O)N1` (centres unmarked) [Compound 215, 3-[5-[4-[4-[4-[2-(4-bromophenyl)-6-hydroxybenzothiophen-3-yl]oxyphenyl]butyl]piperazin-1-yl]-1-oxo-isoindolin-2-yl]piperidine-2,6-dione], on ERα [1], the DC50 is 1 to 10 nM and the greatest degradation seen (Dmax) was in the range of 50 to 75%. Besides, the IC50 at ERα [2] turned out to be 5.3 nM.

At ERα [1], `O=C1CCC(N2Cc3cc(N4CCC(CN5CC(c6ccc(Oc7c(-c8ccc(Br)cc8)sc8cc(O)ccc78)cc6)C5)CC4)ccc3C2=O)C(=O)N1` (centres unmarked) [Compound 216, 3-[5-[4-[[3-[4-[2-[4-bromophenyl)-6-hydroxy-benzothiophen-3-yl]oxyphenyl]azetidin-1-yl]methyl]-1-piperidyl]-1-oxo-isoindolin-2-yl]piperidine-2,6-dione] came in with a DC50 of 1 to 10 nM and a Dmax of 50 to 75%. Further, the IC50 at ERα [2] was 2.7 nM.

Regarding `O=C1CCC(N2Cc3cc(N4CCN(CCCOc5ccc(Oc6c(-c7ccc(OC(F)(F)F)cc7)sc7cc(O)ccc67)cc5)CC4)ccc3C2=O)C(=O)N1` (centres unmarked) [Compound 217, 3-[5-[4-[3-[4-[6-hydroxy-2-[4-(trifluoromethoxy)phenyl]benzothiophen-3-yl]oxyphenoxy]propyl]piperazin-1-yl]-1-oxo-isoindolin-2-yl]piperidine-2,6-dione], on ERα [1], the 50% degradation concentration (DC50) is 1 to 10 nM and the Dmax was 50 to 75%. Besides, the IC50 at ERα [2] amounted to 7.5 nM.

Take `O=C1CCC(N2Cc3cc(N4CCN(CCCOc5ccc(Oc6c(-c7ccc(F)cc7)sc7cc(O)ccc67)cc5)CC4)ccc3C2=O)C(=O)N1` (centres unmarked) [Compound 220, 3-[5-[4-[3-[4-[2(4-fluorophenyl)-6-hydroxybenzothiophen-3-yl]oxyphenoxy]propyl]piperazin-1-yl]-1-oxo-isoindolin-2-yl]piperidine-2,6-dione]: on ERα [1], the half-maximal degradation concentration (DC50) lay in the range of 1 to 10 nM and the Dmax lay within 50 to 75%. Besides, on ERα [2], the IC50 was determined as 1.5 nM.

In the case of `O=C1CCC(N2Cc3cc(N4CCN(CCCOc5ccc(Oc6c(-c7ccc(F)c(F)c7)sc7cc(O)ccc67)cc5)CC4)ccc3C2=O)C(=O)N1` (centres unmarked) [Compound 221, 3-[5-[4-[3-[4-[2-(3,4-difluorophenyl)-6-hydroxy-benzothiophen-3-yl]oxyphenoxy]propyl]piperazin-1-yl]-1-oxo-isoindolin-2-yl]piperidine-2,6-dione], on ERα [1], the DC50 lay in the range of 1 to 10 nM and the Dmax lay in the range of 50 to 75%. Further, on ERα [2], the concentration for half-maximal inhibition (IC50) was 2.4 nM.

In the case of `O=C1CCC(N2C(=O)c3ccc(N4CCN([C@H]5C[C@H](Oc6ccc(Oc7c(-c8ccc(Br)cc8)sc8cc(O)ccc78)cc6)C5)CC4)cc3C2=O)C(=O)N1` (stereo partly drawn) [Compound 223, trans-5-[4-[3-[4-[2-(4-bromophenyl)-6-hydroxy-benzothiophen-3-yl]oxyphenoxy]cyclobutyl]piperazin-1-yl]-2-(2,6-dioxo-3-piperidyl)isoindoline-1,3-dione], on ERα [1], the DC50 is 10 to 100 nM and the Dmax was more than 75%. On ERα [2], the IC50 worked out at 41.1 nM.
